Test results taken from ChEMBL document CHEMBL1201862, “PubChem BioAssay data set” (2004).
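Values below derive from 48-hour exposures of cells grown in 96-well plates, with endpoints linearly interpolated between the two concentrations bracketing the appropriate inhibition level. GI50 is the concentration that inhibits growth by half.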 Activity calls are given as the source filed them. No stated cut-off is given here; in the data, active = GI50 up to about 1.1 µM and inactive = higher.

What was measured:
Assay in all cases: inhibition of tumour cell growth, NCI panel, 48 h
ACHN = test system: ACHN
CAKI-1 = test system: CAKI-1
CCRF-CEM = test system: CCRF-CEM
EKVX = test system: EKVX
HCC 2998 = test system: HCC 2998
HCT-116 = test system: HCT-116
HL-60 = test system: HL-60
IGROV-1 = test system: IGROV-1
KM12 = test system: KM12
OVCAR-3 = test system: OVCAR-3
OVCAR-5 = test system: OVCAR-5
SF-295 = test system: SF-295
SF-539 = test system: SF-539
SK-MEL-5 = test system: SK-MEL-5
SK-OV-3 = test system: SK-OV-3
SW-620 = test system: SW-620
TK-10 = test system: TK-10
UACC-257 = test system: UACC-257

Measured: GI50

CSc1ccc(OCC2OC2O)cc1 (configuration not stated)
inactive: ACHN 40.5 µM | CAKI-1 > 50.9 µM | CCRF-CEM 21.7 µM | EKVX > 93.1 µM | HCC 2998 > 86.3 µM | HCT-116 17.3 µM | HL-60 27.3 µM | IGROV-1 > 100 µM | KM12 36.2 µM | OVCAR-3 30.6 µM | OVCAR-5 > 94.6 µM | SF-295 41.1 µM | SF-539 74.8 µM | SK-MEL-5 16 µM | SK-OV-3 > 100 µM | SW-620 18.4 µM | TK-10 > 50 µM | UACC-257 41.2 µM

Clc1ccc(SCCSCCCCCCCCCCSCCSc2ccc(Cl)cc2)cc1
inactive: ACHN > 100 µM | CAKI-1 > 100 µM | CCRF-CEM > 100 µM | EKVX > 100 µM | HCC 2998 > 100 µM | HL-60 > 100 µM | IGROV-1 > 100 µM | KM12 > 100 µM | OVCAR-3 > 100 µM | OVCAR-5 > 100 µM | SF-295 > 100 µM | SF-539 > 100 µM | SK-MEL-5 > 100 µM | SK-OV-3 > 100 µM | SW-620 > 100 µM | TK-10 > 100 µM | UACC-257 > 100 µM

Cc1ccc([N+](=O)[O-])cc1NC(=O)C(=O)Cc1cc(=O)oc2cc(O)ccc12
inactive: ACHN > 100 µM | CAKI-1 > 100 µM | CCRF-CEM 39.1 µM | EKVX > 100 µM | HCC 2998 > 100 µM | HCT-116 24.2 µM | HL-60 > 100 µM | IGROV-1 > 100 µM | KM12 > 100 µM | OVCAR-3 > 100 µM | OVCAR-5 > 100 µM | SF-295 > 100 µM | SF-539 > 100 µM | SK-MEL-5 > 100 µM | SK-OV-3 > 100 µM | TK-10 > 100 µM | UACC-257 > 100 µM

CCC12C=CCN3CC[C@]4(C(=C(C(=O)OC)[C@@H]1Nc1ncnc5c1ncn5C1OC(COC(C)=O)C(OC(C)=O)C1OC(C)=O)Nc1ccccc14)C32 (some centres not stated)
inactive: ACHN 2.34 µM | CAKI-1 3.42 µM | CCRF-CEM 2.45 µM | EKVX 4.78 µM | HCC 2998 1.82 µM | HCT-116 2.82 µM | HL-60 2.65 µM | IGROV-1 2.85 µM | KM12 2.42 µM | OVCAR-3 1.98 µM | OVCAR-5 3.47 µM | SF-295 3.05 µM | SF-539 2.18 µM | SK-MEL-5 2.55 µM | SK-OV-3 2.36 µM | SW-620 2.45 µM | TK-10 2.87 µM | UACC-257 5.3 µM

c1ccc2c(c1)N=C(c1ccc3ccccc3c1)CC(c1cccc3ccccc13)S2 (configuration not stated)
inactive: ACHN 38.5 µM | CAKI-1 55.8 µM | CCRF-CEM 12.6 µM | EKVX 61.4 µM | HCC 2998 15.1 µM | HL-60 15.1 µM | IGROV-1 14 µM | KM12 18.9 µM | OVCAR-3 33 µM | OVCAR-5 > 100 µM | SF-295 47.1 µM | SF-539 51.6 µM | SK-MEL-5 38.5 µM | SK-OV-3 > 100 µM | SW-620 32.8 µM | TK-10 75.7 µM | UACC-257 56.6 µM

Cl[Si]1(Cl)Oc2ccccc2O[Si](Cl)(Cl)Oc2ccccc2O1
inactive: ACHN 15.8 µM | CAKI-1 28.4 µM | CCRF-CEM 1.45 µM | EKVX 31 µM | HCC 2998 20.7 µM | HCT-116 33.2 µM | HL-60 1.25 µM | IGROV-1 28.6 µM | KM12 34.3 µM | OVCAR-3 21.7 µM | OVCAR-5 27.7 µM | SF-295 31.3 µM | SF-539 20.3 µM | SK-MEL-5 12.4 µM | SK-OV-3 54.3 µM | SW-620 15 µM | TK-10 46.1 µM

CC(=O)OCC1=C(CCC#N)N2C(=O)C(NC(=O)Cc3cccs3)C2[S+]([O-])C1 (configuration not stated)
inactive: ACHN > 100 µM | CAKI-1 > 100 µM | CCRF-CEM > 100 µM | EKVX > 100 µM | HCC 2998 > 100 µM | HCT-116 > 100 µM | HL-60 > 100 µM | IGROV-1 > 100 µM | KM12 > 100 µM | OVCAR-3 > 100 µM | OVCAR-5 > 100 µM | SF-295 > 100 µM | SF-539 > 100 µM | SK-MEL-5 > 100 µM | SK-OV-3 > 100 µM | SW-620 > 100 µM | TK-10 > 100 µM | UACC-257 > 100 µM

Ic1cc2c(cc1C1SCCCS1)OCO2
inactive: ACHN > 100 µM | CAKI-1 > 100 µM | CCRF-CEM > 100 µM | EKVX > 100 µM | HCC 2998 > 100 µM | HCT-116 > 100 µM | HL-60 > 100 µM | IGROV-1 > 100 µM | KM12 > 100 µM | OVCAR-3 > 100 µM | OVCAR-5 > 100 µM | SF-295 > 100 µM | SF-539 > 100 µM | SK-MEL-5 > 100 µM | SK-OV-3 > 100 µM | SW-620 > 100 µM | TK-10 > 100 µM | UACC-257 > 100 µM

OCC1OC(c2nc(C3=NCCCN3)cs2)C(O)C1O (configuration not stated)
inactive: ACHN > 100 µM | CAKI-1 > 100 µM | CCRF-CEM > 100 µM | EKVX > 100 µM | HCC 2998 > 100 µM | HCT-116 > 100 µM | HL-60 > 100 µM | IGROV-1 > 100 µM | KM12 > 10 µM | OVCAR-3 > 10 µM | OVCAR-5 > 100 µM | SF-295 > 10 µM | SF-539 > 100 µM | SK-OV-3 > 100 µM | SW-620 > 100 µM | TK-10 > 100 µM | UACC-257 > 100 µM

COC(=O)/C([Se]c1c(C)cc(C)cc1C)=C(/[Se]c1c(C)cc(C)cc1C)C(=O)OC
inactive: ACHN > 100 µM | CAKI-1 > 100 µM | CCRF-CEM > 100 µM | EKVX > 100 µM | HCC 2998 > 100 µM | HCT-116 > 100 µM | HL-60 > 100 µM | IGROV-1 > 100 µM | KM12 > 100 µM | OVCAR-3 > 100 µM | OVCAR-5 > 100 µM | SF-295 > 100 µM | SF-539 > 100 µM | SK-MEL-5 86.3 µM | SK-OV-3 > 100 µM | SW-620 > 100 µM | TK-10 > 100 µM | UACC-257 > 100 µM

C=CCCC12CCCC(=O)C1Sc1ccc3ccccc3c12 (configuration not stated)
inactive: ACHN 24.8 µM | CAKI-1 9.04 µM | CCRF-CEM 17.7 µM | EKVX 21.6 µM | HCC 2998 14.1 µM | HL-60 7.08 µM | IGROV-1 33.8 µM | KM12 7.38 µM | OVCAR-3 13.6 µM | OVCAR-5 27.5 µM | SF-295 19.4 µM | SF-539 15.1 µM | SK-MEL-5 > 10 µM | SK-OV-3 21.1 µM | SW-620 15.9 µM | TK-10 20.9 µM | UACC-257 17.1 µM
